Test results from patent US7063977B2, “Enzymatic resolution of t-butyl taxane derivatives” (Bristol-Myers Squibb Company, priority 2001, dated 2006).
Where two headings read alike, the source gives them in different places.

Legend:
tumors in mice = settings: oral administration; AACR 1999 abstract 1905; cited from earlier work
sc M109 = settings: oral, doses as high as 160 mg/kg/inj; toxic doses not reached; cited from earlier work
[1] = up to 160 mg/kg/day, Suffness et al.; cited from earlier work
human tumor xenografts [2] = settings: oral; xenografts implanted in athymic rates
human tumor xenografts [3] = settings: oral; xenografts implanted in athymic mice
[4] = oral administration; Eiseman et al., Suffness et al., quoted from WO 98/53811; cited from earlier work

Compound	oral activity against tumors in mice (tumors in mice)	efficacy in murine tumor models (sc M109) (sc M109)	antitumor activity on oral administration [1]	activity of orally administered drug against human tumor xenografts (human tumor xenografts [2])	activity of orally administered drug against human tumor xenografts (human tumor xenografts [3])	absorbed when administered orally [4]
CC(=O)O[C@H]1C(=O)[C@@]2(C)[C@H]([C@H](OC(=O)c3ccccc3)[C@]34OC(=O)O[C@H]3[C@H](OC(=O)[C@H](O)[C@H](CC(C)C)NC(=O)OC(C)(C)C)C(C)=C1C4(C)C)[C@]1(OC(C)=O)CO[C@@H]1C[C@@H]2O [IDN-5109]	oral activity					
CC(=O)O[C@H]1C(=O)[C@@]2(C)[C@H]([C@H](OC(=O)c3ccccc3)[C@]3(O)C[C@H](OC(=O)[C@H](O)[C@@H](NC(=O)c4ccccc4)c4ccccc4)C(C)=C1C3(C)C)[C@]1(OC(C)=O)CO[C@@H]1C[C@@H]2O [paclitaxel]		without signs of any efficacy	no evidence of antitumor activity	unsuccessful	unsuccessful	less than 1%
